Reference: article PMC2940876, “Familial hemiplegic migraine CaV2.1 channel mutation R192Q enhances ATP-gated P2X3 receptor activity of mouse sensory ganglion neurons mediating trigeminal pain” (2010)

Target: T1, P2X3 receptor (Mus musculus, UniProt Q3UR32)
T1 construct: gene P2rx3; native receptor in cultured mouse trigeminal ganglion neurons (WT)
T1 sequence (Q3UR32 1-397): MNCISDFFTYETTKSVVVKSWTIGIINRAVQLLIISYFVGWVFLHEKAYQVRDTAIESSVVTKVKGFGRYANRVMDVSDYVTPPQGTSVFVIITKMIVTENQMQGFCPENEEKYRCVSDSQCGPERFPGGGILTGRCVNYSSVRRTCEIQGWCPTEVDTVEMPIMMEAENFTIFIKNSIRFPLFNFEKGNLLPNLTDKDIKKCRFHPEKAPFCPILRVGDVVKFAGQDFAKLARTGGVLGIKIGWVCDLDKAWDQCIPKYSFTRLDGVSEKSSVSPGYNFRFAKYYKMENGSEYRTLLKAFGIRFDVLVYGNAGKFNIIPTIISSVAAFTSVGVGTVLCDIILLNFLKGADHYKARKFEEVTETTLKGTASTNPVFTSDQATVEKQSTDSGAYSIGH
Assay: whole-cell patch clamp, agonist concentration-response on native neurons
Type: cell-based

For `Nc1ncnc2c1ncn2[C@@H]1O[C@H](COP(=O)(O)CP(=O)(O)OP(=O)(O)O)[C@@H](O)[C@H]1O` [α,β-meATP], the EC50 was 6.9 ± 1.1 µM.
